Experimental findings from US4175081A, “5-Substituted thiadiazole ureas” (priority 1977, dated 1979) are described below.

Assay [1] has as its system Crabgrass (CG). The assay can be described thus: Pre-emergence herbicide test. The class given is in vivo, Digitaria sanquinalis. Particulars: Digitaria sanguinalis, pre-emergence, 336 h; 8 lb/acre; two weeks after treatment. A digest of the protocol: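 Crabgrass (Digitaria sanquinalis) was surface seeded in 3' plastic pots of potting soil, covered with screened soil, and watered by sub-irrigation in greenhouse trays. Pots were seeded one day before spraying in a hood with a moving belt and fixed nozzle. Plants stayed in the greenhouse on sub-irrigation, and pre-emergence control was rated visually two weeks after treatment.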

The subject of assay [2] is Yellow foxtail grass (YF). Nature of the assay: Pre-emergence herbicide test. The format is in vivo, Setaria glauca. Particulars: Setaria, 336 h, 8 lb/acre, two weeks after treatment. A digest of the protocol:
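Seeds surface-sown in potting soil one day before spraying; compounds applied pre-emergence at 8 or 4 lbs/acre in 38 gallons/acre spray. Pots held in greenhouse with sub-irrigation only. Injury or control rated visually two weeks after treatment.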

Assay [3] deals with Johnson grass (JG). Nature of the assay: Pre-emergence herbicide test. To be noted: Sorghum halepense, 336 h, 8 lb/acre, two weeks after treatment. The format is in vivo, Sorgum helepense. A digest of the protocol:
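Pots seeded one day before spraying; compound applied pre-emergence at 8 lbs/acre (or 4 lbs/acre) in 38 gallons/acre spray volume. Sub-irrigated in greenhouse; injury/control rated visually two weeks after treatment.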

For assay [4], the system named is Barnyard grass (BG). Nature of the assay: Pre-emergence herbicide test. The class given is in vivo. To be noted: Echinochloa crus-galli, 336 h, 8 lb/acre, two weeks after treatment. The method, boiled down: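 Barnyard grass surface-seeded in potting soil and sprayed pre-emergence one day after seeding, at 8 or 4 lb compound/acre in 38 gal/acre spray volume. Pots kept in greenhouse with sub-irrigation only; injury or control rated visually two weeks after treatment.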

The test system of assay [5] is Amaranth pigweed (PW). The assay can be described thus: Pre-emergence herbicide test. The class given is in vivo, Amaranthus retroflexus. To be noted: 336 h, 8 lb/acre, two weeks after treatment. The method, boiled down: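 Pigweed was surface-seeded in potted soil one day before spraying at 8 lbs compound per acre, or 4 lbs/acre, in 38 gallons per acre. Pots were kept in the greenhouse with sub-irrigation only; injury or control was rated visually two weeks after treatment.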

In assay [6] the test system is Turnip (TP). Nature of the assay: Pre-emergence herbicide test. The format is in vivo, Brassica sp. To be noted: Brassica rapa, pre-emergence, 336 h; 8 lb/acre; two weeks after treatment. The method, boiled down:
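Turnip (Brassica sp.) seeds were surface sown in 3' plastic pots of potting soil, covered with a thin layer of screened soil, and sub-irrigated in greenhouse trays. Pots were seeded one day ahead of treatment, sprayed pre-emergence under a hood with a fixed nozzle and moving belt, then kept in the greenhouse.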

The test system of assay [7] is Cotton (CT). Nature of the assay: Pre-emergence herbicide test. The class given is in vivo, Gossypium hirsutum var. DPL smooth leaf. Particulars: Gossypium hirsutum, 336 h, 8 lb/acre, two weeks after treatment. The method, boiled down: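 Crop and weed species seeded one day before treatment, then sprayed pre-emergence at 8 lbs actual compound per acre (also 4 lbs/acre formulations) in 38 gallons per acre. Pots kept in greenhouse with sub-irrigation only; injury or control visually rated two weeks after treatment.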

Assay [8] has as its system Corn (CN). The assay can be described thus: Pre-emergence herbicide test. To be noted: Zea mays, 336 h, 8 lb/acre, two weeks after treatment. The format is in vivo. A digest of the protocol: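 Four corn seeds per pot, sown at seed-diameter depth one day before spraying, got soil surface treatment at 8 lbs/acre (4 lbs/acre formulations also prepared) in 38 gallons/acre. Pots were greenhouse-held with sub-irrigation only. Injury or control was scored visually two weeks after treatment.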

In assay [9] the test system is Bean (BN). The assay can be described thus: Pre-emergence herbicide test. The format is in vivo, Phaseolus vulgaris var. Black Valentine. To be noted: Phaseolus vulgaris, 336 h, 8 lb/acre, two weeks after treatment. The method, boiled down:
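Black Valentine bean was seeded in potting soil one day before spraying. Compound was applied pre-emergence at 8 lbs/acre (also 4 lbs/acre) in 38 gallons per acre. Plants were sub-irrigated and injury or control was rated visually after two weeks.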

For assay [10], the system named is Crabgrass (CG). Nature of the assay: Post-emergence herbicide test. The class given is in vivo, Digitaria sanquinalis. Particulars: Digitaria sanguinalis, post-emergence, 336 h; 8 lb/acre; two weeks after treatment. A digest of the protocol:
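Crabgrass (Digitaria sanquinalis) was surface seeded individually in 3' plastic pots of potting soil, covered with screened soil, and watered by sub-irrigation in greenhouse trays. Planting was staggered so seedlings reached the target stage together. Post-emergence sprays were applied in a hood with a removable belt and fixed nozzle, and control was visually rated two weeks after treatment.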

In assay [11] the test system is Yellow foxtail grass (YF). The assay can be described thus: Post-emergence herbicide test. The format is in vivo, Setaria glauca. To be noted: Setaria, 336 h, 8 lb/acre, two weeks after treatment. A digest of the protocol: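 Potted seedlings grown in greenhouse, planting staggered to reach the target stage together, then sprayed post-emergence at 8 lbs actual compound/acre in 38 gallons/acre (4 lbs/acre formulations also prepared). Sub-irrigated afterwards. Injury or control rated visually two weeks after treatment.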

Assay [12] has as its system Johnson grass (JG). The assay can be described thus: Post-emergence herbicide test. The class given is in vivo, Sorgum helepense. Particulars: Sorghum halepense, 336 h, 8 lb/acre, two weeks after treatment. The method, boiled down:
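Greenhouse pot-grown seedlings sprayed post-emergence at 8 lbs compound per acre (some at 4 lbs/acre) in 38 gallons per acre spray volume. Sub-irrigated thereafter. Injury/control rated visually two weeks after treatment.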

Assay [13] has as its system Barnyard grass (BG). The assay can be described thus: Post-emergence herbicide test. Particulars: Echinochloa crus-galli, 336 h, 8 lb/acre, two weeks after treatment. The format is in vivo. A digest of the protocol:
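Greenhouse pot-grown barnyard grass seedlings sprayed post-emergence at 8 lbs active compound per acre (some at 4 lbs/acre) in 38 gallons per acre, then sub-irrigated. Injury or control rated visually two weeks after treatment.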

In assay [14] the test system is Amaranth pigweed (PW). The assay can be described thus: Post-emergence herbicide test. The format is in vivo, Amaranthus retroflexus. To be noted: 336 h, 8 lb/acre, two weeks after treatment. A digest of the protocol: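 Pot-grown pigweed was sprayed post-emergence at the 1–2 true-leaf stage with compound at rates equivalent to 8 lbs per acre (formulations also prepared for 4 lbs/acre) in 38 gallons per acre, using a hood with fixed nozzle. Plants were sub-irrigated in the greenhouse, and injury or control was rated visually two weeks after treatment.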

The test system of assay [15] is Turnip (TP). Nature of the assay: Post-emergence herbicide test. The format is in vivo, Brassica sp. To be noted: Brassica rapa, post-emergence, 336 h; 8 lb/acre; two weeks after treatment. A digest of the protocol: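 A greenhouse post-emergence herbicide test on turnip. Seeds were sown on the surface of potting soil in 3' plastic pots, lightly covered with screened soil and watered from below. Planting was timed so seedlings had 1 or 2 true leaves above the cotyledons at spraying, done in a hood with a fixed nozzle. Control or injury was scored by eye after two weeks.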

For assay [16], the system named is Cotton (CT). The assay can be described thus: Post-emergence herbicide test. The class given is in vivo, Gossypium hirsutum var. DPL smooth leaf. To be noted: Gossypium hirsutum, post-emergence, 336 h; 8 lb/acre; two weeks after treatment. A digest of the protocol:
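Cotton (Gossypium hirsutum var. DPL smooth leaf) was grown in 3' plastic pots of potting soil, four seeds per pot, planted at a depth equal to the seed diameter and watered by sub-irrigation. At the stage of expanded cotyledons with the first true leaf 1' long, plants were sprayed post-emergence in a hood with a fixed nozzle over a moving belt. Percent control was rated visually two weeks later.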

The subject of assay [17] is Corn (CN). The assay can be described thus: Post-emergence herbicide test. To be noted: Zea mays, 336 h, 8 lb/acre, two weeks after treatment. The class given is in vivo. A digest of the protocol:
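Greenhouse seedlings grown in potting soil and sprayed post-emergence at 8 lbs compound/acre (formulations also made for 4 lbs/acre) in 38 gallons/acre spray volume. Watering by sub-irrigation only. Injury or control rated visually two weeks after treatment.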

The subject of assay [18] is Bean (BN). Nature of the assay: Post-emergence herbicide test. The class given is in vivo, Phaseolus vulgaris var. Black Valentine. To be noted: Phaseolus vulgaris, post-emergence, 336 h; 8 lb/acre; two weeks after treatment. The method, boiled down: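 Snapbean (Phaseolus vulgaris var. Black Valentine) was tested post-emergence. Four seeds were sown in 3' plastic pots of potting soil at a depth equal to the seed diameter, then sub-irrigated in greenhouse trays. Planting dates were staggered so plants were sprayed once primary leaves had expanded, with the growing point at the primary leaf nodes.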

In assay [19] the test system is variety of crops and weed species. Nature of the assay: Pre- and post-emergence herbicide tests, overall assessment of Tables III-VI. The format is in vivo. To be noted: data of Tables III-VI. A digest of the protocol: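 Crops and weeds grown in potting soil were sprayed at 8 lbs. compound per acre in 38 gallons per acre, pre-emergence pots seeded one day before treatment. Injury or control was visually rated two weeks after treatment.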

On to `CNC(=O)Nc1nncs1` [Example 35], for which the pest or weed control at 8966.8 g/ha (in the assay with Crabgrass (CG) [1]; in assay [2]; in the assay with Johnson grass (JG) [3]; with Barnyard grass (BG) [4]; in the assay on Amaranth pigweed (PW) [5]; in the assay with Turnip (TP) [6]) was 10% in each case. Moreover, the pest or weed control (in general, how far the test organism was held down) at 8966.8 g/ha in the assay with Cotton (CT) [7] turned out to be 100%; with Corn (CN) [8], 10%; in the assay with Bean (BN) [9] it was 60%; in the assay with Crabgrass (CG) [10], 10%; in assay [11], 10%; in the assay with Johnson grass (JG) [12] it was 10%. In addition, the pest or weed control at 8966.8 g/ha in the assay with Barnyard grass (BG) [13] is 10%; in the assay with Amaranth pigweed (PW) [14], 100%; in the assay with Turnip (TP) [15], 20%; in the assay with Cotton (CT) [16], 50%; in the assay on Corn (CN) [17] it was 10%; in the assay on Bean (BN) [18], 30%. For the same compound, the “herbicidal effectiveness / selectivity, in words” value in assay [19] was “more selective when applied to a certain crop or weed species”.
